The text below walks through data of patent US6653354B2, “NMDA antagonist comprising xenon” (priority 1999, dated 2003).

For orientation: Hill coefficient means a measure of the steepness of the concentration-response curve. By EC50 is commonly meant the concentration that produces a half-maximal response.

Assay [1] deals with glutamatergic synapses (NMDA receptor slow component, AMPA/KA receptor fast component) of hippocampal neurons. Description: Excitatory (glutamatergic) postsynaptic currents, voltage-clamped autaptic hippocampal neurons. The assay is classed as cell-based, rat. Here is the method: Hippocampal neurons were grown in culture using methods described previously (Segal M M et al, J. Neurophysiol. 1990, 64:1390-1399; Bekkers J M et al, Proc. Natl. Acad. Sci. U.S.A. 1991, 88:7834-7838; Mennerick S et al, J. Neurophysiol. 1995, 73:320-332). Briefly, hippocampi from Sprague Dawley rats (postnatal day 1-3) were dissected, roughly sliced and agitated in a papain-containing solution (20 units ml^−1) for 30 minutes at 37 EC. After washing with enzyme-free solution, the tissue was gently triturated with a fire-polished Pasteur pipette and the cells were plated out at a density of 8-10×10^4 cells ml^−1 and cultured (95% air/5% CO2) at 37° C. Glass coverslips used for culturing the cells were first coated with agarose (0.15% w/v) and then sprayed with a fine mist of poly-D-lysine (PDL) and collagen (0.1 mg ml^−1 PDL and 0.5 mg ml^−1 rat-tail collagen) from a glass micro-atomiser and sterilized by UV exposure. This produced micro-islands of permissive substrate with diameters of between 100 and 1000 μm. At 3-4 days after plating, when the glial cell layer was about 80% confluent, an anti-mitotic agent (cytosine β-D-arabinofuranoside, 5 μM) was added to arrest glial cell proliferation. Neuronal cultures were then allowed to mature for another 4-9 days. We used micro-islands which contained single isolated neurons whose axonal processes and dendritic trees formed multiple self-synapses (autapses). This procedure provided a large population of phenotypically identical monosynaptic connections.
The neurons were voltage-clamped using the whole-cell recording technique (Axopatch 200 amplifier, Axon Instruments, Foster City, Calif.). Electrodes were fabricated from borosilicate glass and typically had resistances of between 3-5 MΩ. Series resistance was compensated by 75-90%. Neurons were voltage-clamped at −60 mV, and synaptic responses were stimulated by a 2 ms depolarising pulse to +20 mV. […] For the synaptic measurements, data were sampled at 50 kHz, filtered at 20 kHz (−3 dB, 8-pole Bessel) and stored on a computer. The extracellular recording solution was (mM) 137 NaCl, 5 KCl, 3 CaCl2, 5 HEPES, 10 glucose, 0.001 glycine, 0.0001 strychnine-HCl, titrated to pH 7.3 with NaOH; and the intracellular (pipette) solution was (mM) 140 KCl, 4 NaCl, 0.5 EGTA, 2 MgATP, 10 HEPES, titrated to pH 7.25 with KOH.
Xenon solutions were prepared by first bubbling pure gases (oxygen, nitrogen or xenon) through fine sintered-glass bubblers in 250- or 500-ml Drechsel bottles filled with extracellular recording saline. […] (To minimise oxidization, the neurotoxins and neurotransmitters were excluded from the fully oxygenated saline.) During bubbling, the solutions were continually stirred at room temperature. These solutions were then mixed to achieve the desired final concentrations of the gases. Our control solutions usually contained 80% of the nitrogen solution and 20% of the oxygen solution, while our test solutions usually contained 80% of the xenon solution and 20% of the oxygen solution. Using a Bunsen water/gas partition coefficient of 0.0965 (Smith R A et al, Biochim. Biophys. Acta 1981, 645:327-338) we calculate that our standard test solution contained 3.4 mM xenon. Xenon (research grade, 99.993% pure) was supplied by BOC gases, Guildford, Surrey, UK. In all cases xenon was pre-applied to the neurons for at least 30 seconds before the initiation of synaptic currents.
In order to obtain an estimate for the total charge transfer, the EPSCs or IPSCs were numerically integrated.

For assay [2], the system named is adenylyl cyclase (AC) / alpha-2 adrenergic receptors. The assay is described as follows: Adenylyl cyclase activity in neuroblastoma X glioma hybrid cell line (synaptic plasticity paradigm). Type of assay: cell-based. The text has this:
Perturbation of function in the central nervous system can be produced by a change in the strength of neural connections, which is referred to as synaptic plasticity. The present inventors have used the neuroblastoma X glioma hybrid cell line to examine the effect of xenon on synaptic plasticity. In this paradigm the alpha-2 adrenergic receptors, which are pivotally involved in synaptic transmission, inhibit adenylyl cyclase (AC).
To examine the inhibitory effect of alpha-2 adrenergic receptors on AC it is first necessary to stimulate the endogenous AC with Prostaglandin E1 (PGE1).
To induce “synaptic plasticity” cells are pretreated for 8 hours with norepinephrine; after preparing homogenates from thoroughly washed cells, re-applied norepinephrine loses its inhibitory effect on PGE1-stimulated AC activity.

The next assay relates to NMDA receptors. The assay is classed as cell-based, rat. Conditions: neurons clamped at −60 mV.
In assay [3] the test system is c Fos expression in arcuate nucleus of hypothalamus. The assay is described as follows: c Fos expression in arcuate nucleus after NMA (inhibition of synaptic plasticity in vivo). Also on record: species or system Sprague Dawley female adult rats. Conditions: MK801 0.5 mg/kg s.c. + NMA 100 mg/kg s.c. The text has this: With exposure to NMA neuronal activation is enhanced (E vs A) which is indicative of synaptic plasticity. In the presence of both Xenon (D) and MK 801 (B), synaptic plasticity induced by NMA is inhibited. […] This is sometimes referred to as long term potentiation, an example of synaptic plasticity. […] The attenuation of c Fos expression is a reflection of the inhibition of synaptic plasticity.

The subject of assay [4] is neurons of arcuate nucleus of hypothalamus. Description: NMA-induced neuron injury in the arcuate nucleus (neuroprotection in vivo). Also on record: species or system Sprague Dawley female adult rats. Conditions: MK801 0.5 mg/kg s.c. + NMA 100 mg/kg s.c. Here is the method:
It can be seen that NMA caused neuronal degeneration and vacuoulated swelling in the neuropil giving a spongiform appearance in the arcuate nucleus (E). The degenerated neuron has a pyknotic nucleus, which look like “bulls' eyes” because of oedematous swelling of the cytoplasmic compartment.
Rats were injected with NMA (100 mg/kg) sc and sacrificed 4 hours later after exposure to air (“NMA”; n=7) or xenon 75% (“75% xenon+NMA”; n=8). (For comparison the effect of MK801, the NMDA antagonist, is also shown). The arcuate nucleus was removed and sectioned and stained with cresyl violet. Control animals (“PS”; n=6) had neither NMA nor xenon administered. Data are reflected as either the mean of three sections/animal (upper) or the sum (lower) of degenerated neurons in both arcuate nuclei.

[5] abbreviates: excitatory currents + 200 μM AP5.

With `NC(CCCP(=O)(O)O)C(=O)O` (racemic) [AP5, DL-2-amino-5-phosphononpentanoate, reference compound], the “reduction in total charge transfer” value in assay [1] (200 μM AP5) was 75%. Also, in assay [1] (setting [5]), the “Decay half-time % change (means ± SEM)” value is −24.1 ± 3.3%, the “Ifast % change (means ± SEM)” value is recorded as 6.8 ± 6.2%, the “Ipeak % change (means ± SEM)” value was −16.3 ± 2.1% and the “Islow % change (means ± SEM)” value is −98.8 ± 0.8%. Moreover, in assay [1] (setting [5]), the “Qfast % change (means ± SEM)” value was determined as 5.3 ± 9.6%, the “Qslow % change (means ± SEM)” value was −96.0 ± 3.4%, the “Total charge transfer % change (means ± SEM)” value was −75.2 ± 2.5% and the “τfast % change (means ± SEM)” value was −5.9 ± 2.3%.
With `NC[C@H](O)c1ccc(O)c(O)c1` [norepinephrine], the “effect on PGE1-stimulated AC activity” value in assay [2] (norepinephrine coadministered with PGE1) is recorded as “dose-dependently inhibited”.
For `CN[C@H](CC(=O)O)C(=O)O` [NMDA, N-methyl-D-aspartate], in the assay with NMDA receptors, the Hill coefficient worked out at 1.2±0.1. Moreover, the EC50 on NMDA receptors (read-out: EC50 for activation of inward current) amounted to 24 ± 2 µM.
Take `CCCCC[C@H](O)/C=C/[C@H]1[C@H](O)CC(=O)[C@@H]1CCCCCCC(=O)O` [PGE1, Prostaglandin E1]: the “effect on adenylyl cyclase (AC) activity” value in assay [2] (increasing doses of PGE1) is recorded as “dose-dependently stimulates”.
`C[C@]12N[C@H](Cc3ccccc31)c1ccccc12` [MK801, reference compound]: the “synaptic plasticity induced by NMA (c Fos expression)” value in assay [3] is given as “is inhibited”. For the same compound, the “NMA-induced neuronal injury (cresyl fast violet histology)” value in assay [4] is recorded as “prevented NMA-induced injury”.
